Measured values taken from patent US11414429B2, “Compound or pharmaceutically acceptable salt thereof” (RIKEN, priority 2016, dated 2022).

How the values were obtained:
[1] = target: T1, tankyrase 2 (TNKS 2) (Homo sapiens, UniProt Q9H2K2); experiment: Tankyrase inhibitory activity test (ELISA, self-polyADP ribosylation), tankyrase 2; assay type: biochemical; settings: ELISA, self-polyADP ribosylation; class symbols; read-out: TNKS2 (inhibitory activity against tankyrase 2, IC50 value)
T1 construct: 613-1, 116aa; made in house; host or cells: cell-free protein synthesis system
How it was run: (§1)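 IC50 was fitted to residual self-polyADP-ribosylation activity, detected by HRP-streptavidin chemiluminescence. Plate-bound Flag fusions (TNKS1 1,024-1,327aa SAM+PARP; TNKS2 613-1,116aa ANK5+SAM+PARP, cell-free synthesized) saw compound for 10 min at room temperature in 50 mM Tris-HCl pH 8.0, 4 mM MgCl2, 0.2 mM DTT. Reaction with 225 μM NAD/25 μM 6-biotin-17-NAD solution ran 45 min at 30 °C.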

[2] = target: T2, tankyrase 1 (TNKS 1) (Homo sapiens, UniProt O95271); experiment: Tankyrase inhibitory activity test (ELISA, self-polyADP ribosylation), tankyrase 1; assay type: biochemical; settings: ELISA, self-polyADP ribosylation; class symbols; read-out: TNKS1 (inhibitory activity against tankyrase 1, IC50 value)
T2 construct: 1,024-1,327aa; made in house; host or cells: cell-free protein synthesis system
How it was run: as §1

[3] = system: human colorectal cancer cell line, COLO-320DM; experiment: Cell proliferation inhibitory activity test (Celltiter-Glo Luminescent Cell Viability Assay); assay type: cell-based; settings: COLO-320DM cells, 96 hours, class symbols, read-out: COLO-320 DM (cell proliferation inhibitory activity, GI50 value)
How it was run: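 GI50 is taken as the concentration halving cell growth versus 1% DMSO control, measured by ATP luminescence. Compound exposure lasted 96 h at 37° C. under 5% CO2, after overnight seeding in RPMI-1640 with 10% FBS and 2 mM glutamine.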

T2 sequence (O95271 1024-1327): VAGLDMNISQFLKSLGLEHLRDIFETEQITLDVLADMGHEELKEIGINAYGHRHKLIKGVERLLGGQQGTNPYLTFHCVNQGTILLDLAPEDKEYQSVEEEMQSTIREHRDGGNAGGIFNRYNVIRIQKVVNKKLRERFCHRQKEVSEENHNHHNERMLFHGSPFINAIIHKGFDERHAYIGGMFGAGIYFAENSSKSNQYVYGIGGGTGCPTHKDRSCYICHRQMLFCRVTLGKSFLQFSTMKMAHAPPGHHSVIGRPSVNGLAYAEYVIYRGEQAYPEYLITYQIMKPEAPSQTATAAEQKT
T1 sequence (Q9H2K2 613-1166): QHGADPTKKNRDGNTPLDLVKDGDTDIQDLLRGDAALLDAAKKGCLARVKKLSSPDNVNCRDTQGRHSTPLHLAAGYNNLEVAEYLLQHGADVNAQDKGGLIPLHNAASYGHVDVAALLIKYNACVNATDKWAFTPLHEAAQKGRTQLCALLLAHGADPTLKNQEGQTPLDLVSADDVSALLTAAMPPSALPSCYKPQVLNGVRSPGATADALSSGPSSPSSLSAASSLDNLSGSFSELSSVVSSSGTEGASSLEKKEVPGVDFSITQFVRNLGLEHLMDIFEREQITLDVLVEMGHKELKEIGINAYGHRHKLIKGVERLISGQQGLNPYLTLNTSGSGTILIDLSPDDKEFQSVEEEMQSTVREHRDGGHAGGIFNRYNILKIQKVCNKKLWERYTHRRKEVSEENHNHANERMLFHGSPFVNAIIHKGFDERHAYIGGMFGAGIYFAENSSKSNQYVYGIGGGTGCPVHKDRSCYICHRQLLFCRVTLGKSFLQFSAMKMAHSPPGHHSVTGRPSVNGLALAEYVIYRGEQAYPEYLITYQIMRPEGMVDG

Question: Which IC50 [1] does the source give for CN1CCCc2c1nc(N1CCC3(CC1)C(=O)N(C)c1c(OCC(=O)O)ccc(F)c13)[nH]c2=O [Example 412, 2-[4-fluoro-1′-(4-hy-droxy-8-methyl-6,7-di-hydro-5H-pyrido[2,3-d]pyrimidin-2-yl)-1-meth-yl-2-oxospiro[indole-3,4′-piperidin]-7-yl] oxyacetic acid] here?
Answer: Its IC50 is < 0.02 µM.

Question: And the IC50 [2]?
Answer: Its IC50 is < 0.02 µM.

Question: What about the GI50 [3] of the same compound?
Answer: Its GI50 is 0.6 to 1 µM.

Question: With CN1CCC(COc2ccc(F)c3c2N(C)C(=O)C32CCN(c3nc4c(c(=O)[nH]3)CCCN4C)CC2)CC1 [Example 413] as the compound, how does the IC50 [1] read?
Answer: Its IC50 is < 0.02 µM.

Question: What about the IC50 [2] of the same compound?
Answer: The IC50 was 0.02 to 0.2 µM.

Question: What about the GI50 [3] of the same compound?
Answer: The GI50 was 0.6 to 1 µM.

Question: Which IC50 [1] does the source give for CN1C(=O)C2(CCN(c3nc4c(c(=O)[nH]3)CCCN4)CC2)c2c(F)ccc(OCCO)c21 [Example 414, 4-fluoro-7-(2-hydroxy-ethoxy)-1′-(4-hydroxy-5,6,7,8-tetrahdyro-pyrido[2,3-d]pyrimidin-2-yl)-1-methyl-spiro [indole-3,4′-piperidin]-2-one] here?
Answer: The IC50 was < 0.02 µM.

Question: What about the IC50 [2] of the same compound?
Answer: Its IC50 is < 0.02 µM.

Question: What about the GI50 [3] of the same compound?
Answer: Its GI50 is 0.6 to 1 µM.

Question: CN1CCCc2c1nc(N1CCC3(CC1)C(=O)N(C)c1c(OCc4nnn[nH]4)ccc(Cl)c13)[nH]c2=O [Example 415, 4-chloro-1′-(4-hydroxy-8-methyl-6,7-dihydro-5H-pyrido[2,3-b]py-rimidin-2-yl)-1-meth-yl-7-(2H-tetrazol-5-yl-methoxy)spiro[indole-3,4′-piperidin]-2-one] was tested. Which IC50 [1] did it give?
Answer: The IC50 was < 0.02 µM.

Question: And the IC50 [2]?
Answer: The IC50 was < 0.02 µM.

Question: And the GI50 [3]?
Answer: The GI50 was 0.6 to 1 µM.

Question: How did the IC50 [1] turn out when COCCN1C(=O)C2(CCN(c3nc4c(c(=O)[nH]3)CCCN4C)CC2)c2c(F)cc(N3CCNCC3)cc21 [Example 416] was run?
Answer: Its IC50 is < 0.02 µM.

Question: And the IC50 [2]?
Answer: The IC50 was < 0.02 µM.

Question: What about the GI50 [3] of the same compound?
Answer: The GI50 was 0.1 to 0.6 µM.

Question: C[C@@H]1CN(c2cc(F)c3c(c2)N(CC(F)(F)F)C(=O)C32CCN(c3nc4c(c(=O)[nH]3)CCCN4C)CC2)C[C@H](C)N1 [Example 417, 6-(cis-3,5-dimethyl-piperazin-1-yl)-4-fluoro-1′-(8-methyl-4-oxo-3,4,5,6,7,8-hexahydropyrido[2,3-d]pyrimidin-2-yl)-1-(2,2,2-trifluoroethyl) spiro[indoline-3,4′-piperidin]-2-one] was tested. Which IC50 [1] did it give?
Answer: Its IC50 is < 0.02 µM.

Question: What about the IC50 [2] of the same compound?
Answer: Its IC50 is < 0.02 µM.

Question: And the GI50 [3]?
Answer: The GI50 was 0.6 to 1 µM.

Question: Which IC50 [1] does the source give for COCCN1C(=O)C2(CCN(c3nc4c(c(=O)[nH]3)CCCN4C)CC2)c2c(F)cc(OCc3nnn[nH]3)cc21 [Example 418, 4-fluoro-1-(2-methoxyethyl)-1′-(8-methyl-4-oxo-3,4,5,6,7,8-hexahydropyrido[2,3-d]pyrimidin-2-yl)-6-[(1H-tetrazole-5-yl)methoxy]spiro[indoline-3,4′-piperidine]-2(1H)-one] here?
Answer: Its IC50 is < 0.02 µM.

Question: What about the IC50 [2] of the same compound?
Answer: Its IC50 is < 0.02 µM.

Question: And the GI50 [3]?
Answer: Its GI50 is 0.1 to 0.6 µM.

Question: For CN1CCCc2c1nc(N1CCC3(CC1)C(=O)N(CC(F)(F)F)c1cc(OCc4nnn[nH]4)cc(F)c13)[nH]c2=O [Example 419, 6-[(1H-tetrazol-5-yl)methoxy]-4-fluoro-1′-(8-methyl-4-oxo-3,4,5,6,7,8-hexahydro-pyrido[2,3-d]pyrimidin-2-yl)-1-(2,2,2-trifluoro-ethyl)spiro[indoline-3,4′-piperidin]-2(1H)-one], which IC50 [1] is on record?
Answer: Its IC50 is < 0.02 µM.

Question: And the IC50 [2]?
Answer: Its IC50 is < 0.02 µM.

Question: What about the GI50 [3] of the same compound?
Answer: Its GI50 is < 0.1 µM.

Question: CN1CCC(Oc2ccc(F)c3c2N(C)C(=O)C32CCN(c3nc4c(c(=O)[nH]3)CCCN4C)CC2)CC1 [Example 420, 4-fluoro-1′-(4-hydroxy-8-methyl-6,7-dihydro-5H-pyrido[2,3-d]pyrimidin-2-yl)-1-methyl-7-(1-methylpiperidin-4-yl)oxyspiro[indole-3,4′-piperidin]-2-one] was tested. Which IC50 [1] did it give?
Answer: Its IC50 is < 0.02 µM.

Question: What about the IC50 [2] of the same compound?
Answer: Its IC50 is < 0.02 µM.

Question: And the GI50 [3]?
Answer: Its GI50 is 0.1 to 0.6 µM.

Question: CN1CCCc2c1nc(N1CCC3(CC1)C(=O)N(C)c1c(OCC4CCNCC4)ccc(F)c13)[nH]c2=O [Example 421, 4-fluoro-1′-(4-hydroxy-8-methyl-6,7-dihydro-5H-pyrido[2,3-d]pyrimidin-2-yl)-1-meth-yl-7-(piperidin-4-yl-methoxy)spiro[indole-3,4′-piperidin]-2-one] was tested. Which IC50 [1] did it give?
Answer: Its IC50 is < 0.02 µM.

Question: What about the IC50 [2] of the same compound?
Answer: The IC50 was < 0.02 µM.

Question: And the GI50 [3]?
Answer: Its GI50 is 0.1 to 0.6 µM.
